From patent publication US6506880B2, “Synthetic peptides that enhance atherogenic lipoprotein uptake and lower plasma cholesterol” (The UAB Research Foundation, priority 1998, dated 2003)

Tests used:
[1] = test system: HepG2 cells; experiment: Uptake of 125I-VLDL-peptide complex by HepG2 cells; assay type: cell-based
[2] = test system: MEF1 cells; experiment: Internalization (uptake) and binding of 125I-LDL by mouse embryonic fibroblasts; assay type: cell-based; conditions: for Enhancement of LDL uptake (in words): mouse fibroblasts, results not shown
Method: The binding, internalization and degradation of LDL/VLDL in fibroblasts were measured using the method of Goldstein et. al. (20). All cells were grown in DMEM medium in 6-well plates and used at 75-90% confluence was reached. The seeding density of cells used was between 1.5×10^5 and 3.0×10^5 cells/ml medium. Cells were incubated with DMEM medium containing LPDS 24 hours prior to use to upregulate LDL receptors. […] Non-specific binding was determined in the presence of 50 fold excess unlabelled LDL/VLDL with or without peptides. After washing with ice cold PBS (containing BSA 2 mg/ml), to remove excess free labeled lipoprotein, the cells were incubated with dextran sulfate (4 mg/ml, Pharmacia, Mr 500,000) or heparin (Sigma Chemical Co., 10 mg/ml) for 1 h to release spcifically bound ^125I-LDL/^125I-VLDL, and washed with cold PBS. The counts in the dextran sulfate wash reflect the amount of LDL/VLDL bound to cells.
The cells were dissolved in 0.1 N NaOH and a 0.5 ml aliquot of cell suspension was counted. These counts reflect the amount of LDL/VLDL internalized. Protein was estimated by the method of Lowry. Degradation of LDL/VLDL were studied using the protocol described above for 4° C., except that the cells were incubated at 37° C. for 5 hours. Degradation was determined by precipitating the unbound ^125I-LDL/^125I-VLDL from the medium with 50% TCA (0.5 ml of 50% TCA was added to 1 ml of medium) and incubating at 4° C. for 30 minutes (20). The precipitate was removed by centrifugation. The supernatant was treated with 10 μl of 40% potassium iodide and 40 μl of 30% hydrogen peroxide. The free ^125I liberated was extracted with 2 ml of chloroform. The upper aqueous layer (0.5 ml) was then counted. This represented the amount of ^125I-monoiodotyrosine produced by the degradation of apoB in LDL/VLDL.
(§1) Heparinase and heparitinase treatment of cells was carried out as follows. The cells were treated with heparinase and heparitinase (Sigma Chemical Co.) at a concentration of 3 U/ml of media for 2 hours at 37° C. These experiments were carried out using human and mouse fibroblasts as well as HepG2 cells. Mouse embryonic fibroblasts (MEF1), the LRP deficient mutant (PEA13) and the LRP/LDL double mutant (MEF4) were (obtained from ATCC ) used to identify the possible mechanism involved. In all the cell experiments, the average value of triplicates was used.
The effect of the peptide was studied in two ways: (a) the peptide was added to the cell media directly after adding LDL and (b) it was first incubated with LDL for 1 h at room temperature and the coincubated mixture was added to the cells after filtering through a 0.221μ filter. The peptide-LDL “complex” or modified LDL appears to enhance the uptake of ^125I-LDL much more than the peptide by itself (results not shown). […]

[3] = Circular dichroic spectrometry, percent helicity of peptides; assay type: physicochemical; conditions: for Percent Helicity, Peptide: peptide alone, 100 μM in PBS, pH 7.4, 25° C.; for Percent Helicity, Peptide/DMPC (1:20): peptide-DMPC complex 1:20 m/m
Method: Circular dichroic spectra were recorded on a signal averaging AVIV 62DS spectropolarimeter as described earlier (18). Briefly, circular dichroic spectra were obtained at 25° C. by signal averaging of four scans recorded every nm from 260 nm to 190 nm using a cell with a 0.01 cm path length Peptide concentrations in PBS, pH 7.4, used were 100 μM. Peptide-DMPC complexes (1:20 m/m) were prepared as described (18) and the change in peptide helicity upon lipid association measured. The helical content of the peptides was estimated from the mean residue ellipticity, [θ]MRE (deg.cm^2.dmol^−1) at 222 nm using the equations as detailed by Morrisett et al.(23).

[4] = test system: apo E-gene knock out mice; experiment: Intravenous administration of peptide, plasma cholesterol (CLiP); assay type: in vivo, mouse
Method: Female apo E knockout mice were injected through the tail vein with ^125I-Ac-hE18A-NH2 (50 μg in 100 μl PBS). Blood samples were taken by retro-orbital bleeding at baseline (0 h) and at 2 minutes and 6 hours following injection. Success of injection was determined by measuring radioactivity in the 2 minutes sample and calculating total plasma peptide by specific radioactivity of the peptide, assuming total plasma volume=4.2% of body weight.
50 μg of the ^125I-labeled peptide was injected into the tail vein into female apo E-gene knock out mice. Blood was drawn by retro-orbital bleeding immediately before injection (time 0), and at two minutes and 6 hours following the injection. Success of injections was determined by measuring the plasma radioactivity in the two minute sample; the total plasma peptide at two minutes was determined from the specific activity of the injected peptide and the radioactivity present in the plasma. Total plasma volume was assumed to be 4.2% of body weight. Plasma cholesterol profiles were determined on 5 μl of 0 h and 6 h samples by the CLiP method.
CLiP were determined using a modification of a previously described method for the semi-automated cholesterol profiling of lipoproteins by column chromatography (31). The apparatus consisted of two biocompatible HPLC pumps, an injector Pharmacia), a post-column reactor, a 30×1 cm Superose 6 column, and a spectrophotometric detector reading at 500 nm. Plasma samples were injected onto the Superose 6 column. Immediately after the column, cholesterol reagent (Cholesterol 1000, Pharmacia) was mixed with the column eluent through a low-dead-volume mixing tee, and the mixture entered a heating block (set at […]). Outflow from the heating block entered the spectrophotometric detector, and the cholesterol profile was collected through an A/D board and the digitized profile stored in a computer.
To determine the effect of peptide Ac-hE18A-NH2 in clearing the plasma cholesterol, 14 μg to 33 μg of the peptide were administered into six apo E(-/-) animals. In every case, the plasma cholesterol levels decreased. […]

[5] = test system: HepG2 cells; experiment: Degradation of 125I-VLDL-peptide complex by HepG2 cells; assay type: cell-based
Method: […] was used as a control. ^125I-VLDL was incubated with Ac-hE18A-NH2 (1:1 w/w) and reisolated by density centrifugation. The peptide bound to ^125I-VLDL floated to the top while the unbound peptide was at the bottom. The ^125I-VLDL-peptide complex was used to determine the effect of the peptide on the uptake and degradation of ^125I-VLDL. The first bar: ^125I-VLDL alone; the second bar: ^125VLDL-Ac-18A-NH2 (1:1 w/w); the third bar: VLDL-Ac-hE18A-NH2 (1:1 w/w). The data represent an average of triplicate values.
The binding, internalization and degradation of LDL/VLDL in fibroblasts were measured using the method of Goldstein et. al. (20). All cells were grown in DMEM medium in 6-well plates and used at 75-90% confluence was reached. The seeding density of cells used was between 1.5×10^5 and 3.0×10^5 cells/ml medium. Cells were incubated with DMEM medium containing LPDS 24 hours prior to use to upregulate LDL receptors. […] Non-specific binding was determined in the presence of 50 fold excess unlabelled LDL/VLDL with or without peptides. […]
The cells were dissolved in 0.1 N NaOH and a 0.5 ml aliquot of cell suspension was counted. […] Degradation was determined by precipitating the unbound ^125I-LDL/^125I-VLDL from the medium with 50% TCA (0.5 ml of 50% TCA was added to 1 ml of medium) and incubating at 4° C. for 30 minutes (20). […] The upper aqueous layer (0.5 ml) was then counted. […]

[6] = test system: MEF1 cells; experiment: Effect of heparinase/heparitinase treatment of cells on peptide-mediated LDL internalization; assay type: cell-based, mouse; conditions: heparinase and heparitinase 0.5 units each/ml
Method: MEF1 cells were pretreated with heparinase/heparitinase(3U/ml) for 2 hours at 37° C. and then incubated with ^1251I-LDL-peptide for 2 hours at 37° C. The black bars represent internalization without heparinase/heparitinase treatment while the speckled bars represent internalization after pretreatment with heparinase/heparitinase.
as §1
A possible high capacity, low affinity pathway has been previously identified for lipoprotein binding and uptake. Heparan sulfate proteoglycans (HSPG) bind and take up apo E-enriched lipoproteins (27). […] These apo E mimicking peptides could modify LDL and be taken up through heparan sulfate proteoglycans. Therefore, the cells were treated with heparinase and heparitinase (0.5 units each/ml).

[7] = apo E(-/-) mice, intravenous, 6 hours

## Ac-18A-NH2: control peptide, end protected class A amphipathic helical peptide 18A [reference compound]
[1]; VLDL-peptide 1:1 w/w
  Uptake of VLDL by HepG2 cells (in words): does not increase uptake of VLDL
[2]
  Enhancement of LDL uptake (in words): did not enhance LDL uptake

## Ac-hE18A-NH2: end protected analog of hE18A (acetyl and amino groups) (Ac-LRKLRKRLLRDWLKAFYDKVAEKLKEAF-NH2)
[1]; peptide-associated VLDL
  Enhancement of uptake of VLDL compared to VLDL alone: six
[3]
  Percent Helicity, Peptide: 69.3%
  Percent Helicity, Peptide/DMPC (1:20): 74.3%
[4]; FIG. 10B, plasma cholesterol profile at 6 hours vs baseline, single animal
  Reduction of total cholesterol: > 50%
[4]; [7]
  HDL cholesterol: unchanged
  VLDL and LDL cholesterol levels: lowered
[5]; VLDL-peptide 1:1 w/w, versus control
  Enhancement of degradation of VLDL by HepG2 cells: three
[5]; peptide-associated VLDL
  Enhancement of degradation of VLDL compared to VLDL alone: three
[2]; 10 μg peptide, LDL 10 μg, versus corresponding unprotected peptide
  Effectiveness in LDL internalization of protected peptide relative to free peptide: 5 times
[2]; MEF1 cells with induced LDL receptors, 125I-LDL 10 μg + peptide 10 μg, 2 hours at 37° C.
  Enhancement of LDL internalization: five
[6]
  Reduction of uptake of peptide treated LDL by heparinase/heparitinase: ~50%

## LRKLRKRLLR [reference compound]
[2]
  Enhancement of LDL uptake (in words): did not enhance LDL uptake

## LRKLRKRLLR-18A (LRKLRKRLLRDWLKAFYDKVAEKLKEAF) [hE-18A, 141-150 region of human apo E linked to class A amphipathic helical peptide 18A]
[3]
  Percent Helicity, Peptide: 36.0%
  Percent Helicity, Peptide/DMPC (1:20): 46.0%
[3]; listed as hE18A
  Percent Helicity, Peptide: 36%

## LRKMRKRLMR-18A (DOMAIN 133..142 mouse apolipoprotein E receptor binding domain; listed as Mus sp.) [mE-18A]
[3]
  Percent Helicity, Peptide: 36.3%
  Percent Helicity, Peptide/DMPC (1:20): 44.0%
[3]; listed as mE18A
  Percent Helicity, Peptide: 36%

## LRRLRRRLLR-18A (an analog of human apolipoprotein E receptor binding domain) [hE-(R)18A, analog of hE-18A with Lys replaced by Arg]
[3]
  Percent Helicity, Peptide: 51.2%
  Percent Helicity, Peptide/DMPC (1:20): 70.8%
[3]; listed as hE(R)18A
  Percent Helicity, Peptide: ~50%
